Measurements taken from patent EP1984353B1, “AURORA KINASE MODULATORS AND METHOD OF USE” (Amgen, Inc, priority 2006, dated 2007).

Legend:
AuroraB = target: T1, AuroraB (Homo sapiens, UniProt Q96GD4); assay: AuroraB Homogeneous Time Resolved Fluorescent (HTRF) kinase assay; type: biochemical; conditions: average; given as class symbols; read-out: AurB_ _IC50_IP (Avg)
T1 construct: 20 µL of AuroraB FL His; His
In short: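 HTRF read-out: after EDTA stop and ~60 min with europium anti-phospho-H3 antibody and streptavidin-APC, 655/615 nm ratio reports phosphorylation. Reaction: 400 pM AuroraB FL His, 23 µM ATP (at Km(app)), 0.1 µM biotin-Histone H3 peptide, 50 mM HEPES pH 7.5, MgCl/MnCl, ~90 min.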

AuroraA-TPX2 = target: T2, AuroraA-TPX2 (Homo sapiens, UniProt O14965); assay: AuroraA-TPX2 Homogeneous Time Resolved Fluorescent (HTRF) kinase assay; type: biochemical; conditions: average; given as class symbols; read-out: AurA/TP X2_ IC50_IP (Avg)
T2 construct: 20 µL of AuroraA-TPX2 KD GST; GST
T2 sequence (O14965 133-383 limits assumed): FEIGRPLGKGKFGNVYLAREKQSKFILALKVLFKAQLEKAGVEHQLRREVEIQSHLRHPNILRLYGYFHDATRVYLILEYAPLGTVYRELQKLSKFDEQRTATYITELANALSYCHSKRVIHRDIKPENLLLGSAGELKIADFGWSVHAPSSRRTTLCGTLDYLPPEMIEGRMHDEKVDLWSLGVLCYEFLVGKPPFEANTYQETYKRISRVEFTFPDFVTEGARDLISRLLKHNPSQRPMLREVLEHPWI
T2 sequence (Q9ULW0 1-43 partner limits assumed): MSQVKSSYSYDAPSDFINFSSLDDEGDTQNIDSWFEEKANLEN
In short: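 HTRF read-out: europium anti-phosphoPLK antibody (0.02 nM) plus streptavidin-APC detect phosphorylated biotin-PLK after EDTA stop and overnight equilibration. Kinase step runs about 120 min with Aurora-A/TPX2, ATP and roughly 1 µM PLK peptide at pH 7.5 HEPES buffer with Mg2+ and DTT.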

T1 sequence (Q96GD4 whole entry): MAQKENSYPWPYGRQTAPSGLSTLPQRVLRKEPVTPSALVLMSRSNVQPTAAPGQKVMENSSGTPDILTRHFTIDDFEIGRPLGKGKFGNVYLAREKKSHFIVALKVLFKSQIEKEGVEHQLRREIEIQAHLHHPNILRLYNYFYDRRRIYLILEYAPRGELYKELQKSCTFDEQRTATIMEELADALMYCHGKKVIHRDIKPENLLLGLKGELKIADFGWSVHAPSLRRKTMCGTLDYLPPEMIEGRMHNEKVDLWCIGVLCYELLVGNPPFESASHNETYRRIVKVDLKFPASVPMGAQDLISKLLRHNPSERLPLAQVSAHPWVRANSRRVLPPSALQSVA

SMILES	IC50 (AuroraB)	IC50 (AuroraA-TPX2)
C[C@@H]1CN(c2nnc(Nc3ccc(Oc4ncccc4-c4ccnc(N)n4)cc3)c3ccccc23)CCN1 [compound 399, N-(4-((3-(2-amino-4-pyrimidinyl)-2-pyridinyl)oxy)phenyl)-4-((3R)-3-methyl-1-piperazinyl)-1-phthalazinamine]	100 to 500 nM	500 to 2500 nM
Nc1nccc(-c2cccnc2Oc2ccc(Nc3nnc(N4CCN5CCC[C@H]5C4)c4ccccc34)cc2)n1 [compound 401, N-(4-((3-(2-amino-4-pyrimidinyl)-2-pyridinyl)oxy)phenyl)-4-((8aS)-hexahydropyrrolo[1,2-a]pyrazin-2(1H)-yl)-1-phthalazinamine]	≤ 100 nM	≤ 100 nM
Fc1cnc(NCCCN2CCCCC2)nc1-c1cccnc1Oc1ccc(Nc2nnc(-c3ccccc3)c3ccccc23)cc1 [compound 403, N-(4-((3-(5-fluoro-2-((3-(1-piperidinyl)propyl)amino)-4-pyrimidinyl)-2-pyridinyl)oxy)phenyl)-4-phenyl-1-phthalazinamine]	≤ 100 nM	≤ 100 nM
Cc1ccnc(-c2nnc(Nc3ccc(Oc4ncccc4-c4ccnc(N)n4)cc3)c3ccccc23)c1 [compound 404, N-(4-((3-(2-amino-4-pyrimidinyl)-2-pyridinyl)oxy)phenyl)-4-(4-methyl-2-pyridinyl)-1-phthalazinamine]	≤ 100 nM	100 to 500 nM
Cc1ccnc(-c2nnc(Nc3ccc(Oc4ncccc4-c4ccnc(N)n4)nc3)c3ccccc23)c1 [compound 405, N-(6-((3-(2-amino-4-pyrimidinyl)-2-pyridinyl)oxy)-3-pyridinyl)-4-(4-methyl-2-pyridinyl)-1-phthalazinamine]	≤ 100 nM	100 to 500 nM
Nc1nccc(-c2cccnc2Oc2ccc(Nc3nnc(N4CCN5CCCCC5C4)c4ccccc34)cc2)n1 (stereo not shown) [compound 406, N-(4-((3-(2-amino-4-pyrimidinyl)-2-pyridinyl)oxy)phenyl)-4-(octahydro-2H-pyrido[1,2-a]pyrazin-2-yl)-1-phthalazinamine]	≤ 100 nM	≤ 100 nM
Cc1ccnc(-c2nnc(Nc3ccc(Oc4ncccc4-c4ccnc(NCCCN5CCN(C)CC5)n4)cc3)c3ccccc23)c1 [compound 409, N-(4-((3-(2-((3-(4-methyl-1-piperazinyl)propyl)amino)-4-pyrimidinyl)-2-pyridinyl)oxy)phenyl)-4-(4-methyl-2-pyridinyl)-1-phthalazinamine]	≤ 100 nM	100 to 500 nM

The remaining lines, values ahead:

IC50 (AuroraB)	IC50 (AuroraA-TPX2)	SMILES
≤ 100 nM	100 to 500 nM	Fc1cnc(NCCCN2CCNCC2)nc1-c1cccnc1Oc1ccc(Nc2nnc(-c3ccccc3)c3ccccc23)cc1 [compound 400, N-(4-((3-(5-fluoro-2-((3-(1-piperazinyl)propyl)amino)-4-pyrimidinyl)-2-pyridinyl)oxy)phenyl)-4-phenyl-1-phthalazinamine]
≤ 100 nM	≤ 100 nM	Nc1nccc(-c2cccnc2Oc2ccc(Nc3nnc(N4CCN5CCC[C@H]5C4)c4ccccc34)cn2)n1 [compound 402, N-(6-((3-(2-amino-4-pyrimidinyl)-2-pyridinyl)oxy)-3-pyridinyl)-4-((8aS)-hexahydropyrrolo[1,2-a]pyrazin-2(1H)-yl)-1-phthalazinamine]
≤ 100 nM	≤ 100 nM	Cc1ccnn1-c1nnc(Nc2ccc(Oc3ncccc3-c3ccnc(N)n3)cc2)c2ccccc12 [compound 407, N-(4-((3-(2-amino-4-pyrimidinyl)-2-pyridinyl)oxy)phenyl)-4-(5-methyl-1H-pyrazol-1-yl)-1-phthalazinamine]
≤ 100 nM	≤ 100 nM	Cc1ccn(-c2nnc(Nc3ccc(Oc4ncccc4-c4ccnc(N)n4)cc3)c3ccccc23)n1 [compound 408, N-(4-((3-(2-amino-4-pyrimidinyl)-2-pyridinyl)oxy)phenyl)-4-(3-methyl-1H-pyrazol-1-yl)-1-phthalazinamine]
